In publication PMC10051910 (Marine Drugs, 2023) one finds p53 level data, which are given here for one compound.

For the test, the system named is COMI cells. It counts as cell-based, Human.

Molecules are shown by their SMILES.

With `CC[C@@]1(O)C(=O)OCc2c1cc1n(c2=O)Cc2cc3ccccc3nc2-1` [camptothecin], the p53 level entry was “massively upregulate p53”.
